Data reported in paper PMC4077001, “Purification and characterization of a novel lipopeptide from Streptomyces amritsarensis sp. nov. active against methicillin-resistant Staphylococcus aureus” (AMB Express, 2014).
In brackets after ≈: the same amount, converted by molar mass. Ends that are not written are not given here.

Key:
[1] = test system: Chinese hamster ovary (CHO) cell line; test: cells; format: cell-based; conditions: 48 h; for growth inhibition: SRB, OD 540 nm
Experimental: In vitro cytotoxicity was evaluated using sulforhodamine B dye assay (Skehan et al. [1990]). The Chinese hamster ovary cell line (CHO) was used for the assay. Camptothecin (CPT), an anticancer drug was used as standard. The 96-well tissue culture plate, containing different concentrations of lipopeptide (2.5- 25 μg/ml) and CHO cells, was incubated for 48 h and the cell growth was stopped with trichloroacetic acid (50% TCA, 50 μl). The optical density (OD) was recorded at 540 nm on ELISA reader and percent growth inhibition was calculated.

[2] = test system: Salmonella typhimurium (TA98); test: Ames test (Salmonella reverse mutation test); format: cell-based
Experimental: Mutagenicity of the lipopeptide was evaluated by Ames test (Maron and Ames [1983]). This Salmonella reverse mutation test is based on histidine dependence and mutations in Salmonella typhimurium (TA98/ MTCC 1251, IMTECH, Chandigarh). Concentrations of the lipopeptide used for checking toxicity were 50 and 100 μg 0.1 ml^−1 plate^−1. The overnight grown, 0.1 ml bacterial culture and 0.1 ml of lipopeptide were added to 2.0 ml of top agar. The contents were mixed and poured onto glucose minimal agar plates immediately. The plates were […] incubated at 37°C for 48 h. The experiment was repeated to confirm the results. To determine the spontaneous reversion which is characteristic of the tester strain (TA 98), negative control (0.1 ml bacterial culture + 0.1 ml DMSO plate^−1) was run while 4-Nitro-o-phenylenediamine (20 μg 0.1 ml^−1 plate^−1) was used as a positive control mutagen. The mutagenic potential of the lipopeptide was determined by comparing the number of colonies with control plates where no test compound was added.

trypsin [3] = biological target: T1, trypsin (Bos taurus, UniProt P00760); conditions: lipopeptide 1.0 mg/ml + trypsin (~10,000 U/mg) 1.0 mg/ml in 50 mM phosphate buffer pH 7.0, equal volumes (20 μl each), 37°C, 12 h; residual activity by disc diffusion
T1 sequence (P00760 24-246): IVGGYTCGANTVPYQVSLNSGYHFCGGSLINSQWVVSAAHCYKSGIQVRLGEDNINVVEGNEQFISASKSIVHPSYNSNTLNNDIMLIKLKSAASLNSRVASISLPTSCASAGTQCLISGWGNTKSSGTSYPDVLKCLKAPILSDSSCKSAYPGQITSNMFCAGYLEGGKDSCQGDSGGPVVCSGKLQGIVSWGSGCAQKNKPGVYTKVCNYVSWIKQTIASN
Experimental: (§1) Sensitivity to temperature was determined by incubating the purified lipopeptide at different temperatures viz. 50°C, 60°C, 70°C, 80°C , 90°C, 100°C and 121°C for different durations. To determine the optimum pH for activity, purified compound was incubated over pH range of 3.0–12.0 for 30 min at 37°C. The sensitivity of the lipopeptide (1.0 mg/ml) to enzymes was tested against proteinase K (~30 U/mg), trypsin (~10,000 U/mg) and lipase (~9 U/mg). All enzymes were purchased from Sigma Aldrich. Enzyme solutions were prepared at 1.0 mg/ml in 50 mM phosphate buffer (pH 7.0). Equal volumes of enzyme solution and antimicrobial compound (20 μl each) were mixed and incubated at 37°C for 12 h. The enzyme reaction was terminated by heating reaction mixture at 80°C and residual activity was determined by disc diffusion method.

lipase [4] = conditions: lipopeptide 1.0 mg/ml + lipase (~9 U/mg) 1.0 mg/ml in 50 mM phosphate buffer pH 7.0, equal volumes (20 μl each), 37°C, 12 h; residual activity by disc diffusion
Experimental: as §1

[5] = Surface tension, Du-Nouy-Ring method; format: physicochemical; conditions: lipopeptide 0.2% (w/v), lowered from 72
Experimental: (§2) Biosurfactant property of lipopeptide was determined using the qualitative drop-collapse test (Youssef et al. [2004]). In this method, mineral oil (2 μl) was added to 96-well microtitre plate. The plate was equilibrated for 1 h at 37°C and 5 μl of the lipopeptide (10 μg, dissolved in water) was added to the surface of the oil and drop shape was observed after 1 min. The surface tension of a lipopeptide (0.2%, w/v) was measured using Du-Nouy-Ring method (Du Noüy and Pierre [1925]).

MRSA = test: Kirby-Bauer disk diffusion susceptibility test; format: cell-based, Staphylococcus aureus; conditions: clinical isolate; 10 μg lipopeptide per 6 mm disc, Mueller-Hinton agar, 24-48 h; duplicates, repeated thrice
Experimental: (§3) Sensitivity of test organisms to purified lipopeptide was measured in terms of zone of inhibition using Kirby-Bauer disk diffusion susceptibility test (Bauer et al. [1966]). The plates containing Mueller-Hinton agar, yeast malt agar and potato dextrose agar were seeded with test bacteria, yeasts and fungi, respectively. Filter paper discs (6 mm) impregnated with 10 μg of lipopeptide were placed on media plates. The diameter of the resultant zone of inhibition was measured in mm after 24- 48 hours of incubation. Each experiment was performed in duplicates and repeated thrice. Various test organisms used in the study included Bacillus subtilis (MTCC 619), Mycobacterium smegmatis (MTCC 6), Staphylococcus epidermidis (MTCC 435), Escherichia coli (MTCC 1885), Klebsiella pneumoniae sub sp. pneumoniae (MTCC 109), Enterobacter aerogenes (MTCC 111), Salmonella typhi (MTCC 733), multi-drug resistant E. coli, MRSA, VRE, Candida albicans (MTCC 3017), Rhodotorula rubra (MTCC 248), Colletotrichum acutatum (MTCC 1037), Cercospora beticola (GenBank acc. no. KJ461435), Fusarium oxysporum f.sp. dianthi (MTCC 6659), and Alternaria brassicicola (MTCC 2102).

Heat stability assay = format: physicochemical; conditions: for Residual activity (%): residual antimicrobial activity
Description: (§4) All enzymes were purchased from Sigma Aldrich.

[6] = test system: Bacillus subtilis (MTCC 619); test: MIC, microtiter plate dilution assay; format: cell-based; conditions: 37°C, OD 600 nm at 24 and 48 h, triplicates
Experimental: (§5) The MIC of purified lipopeptide was evaluated by using a microtiter plate dilution assay. Test bacteria were grown to logarithmic phase under optimal conditions (up to 0.3 OD) and the test was performed in triplicates. To each well of the microtiter plate, 200 μl of fresh nutrient medium and 50 μl of bacterial suspension were added. Subsequently, different dilutions (50 μl) of freshly prepared samples were added to each well. The first column of the microtiter plate was left as a blank, containing fresh medium only. The microtiter plates were incubated at 37°C and OD was measured at 600 nm at 24 and 48 h using ELISA microplate reader (Bio-rad, Model 680XR).

[7] = test system: Methicillin Resistant Staphylococcus aureus (MRSA); test: MIC, microtiter plate dilution assay; format: cell-based; conditions: clinical strain, 37°C, OD 600 nm at 24 and 48 h, triplicates
Experimental: as §5

[8] = test system: Staphylococcus epidermidis (MTCC 435); test: MIC, microtiter plate dilution assay; format: cell-based; conditions: 37°C, OD 600 nm at 24 and 48 h, triplicates
Experimental: as §5

[9] = test system: Mycobacterium smegmatis (MTCC 6); test: MIC, microtiter plate dilution assay; format: cell-based; conditions: 37°C, OD 600 nm at 24 and 48 h, triplicates
Experimental: as §5

[10] = test system: tested Gram-negative bacteria; test: Kirby-Bauer disk diffusion susceptibility test; format: cell-based; conditions: 10 μg per disc
Experimental: as §3

[11] = test system: Bacillus subtilis (MTCC 619); test: Kirby-Bauer disk diffusion susceptibility test; format: cell-based; conditions: 10 μg lipopeptide per 6 mm disc, Mueller-Hinton agar, 24-48 h; duplicates, repeated thrice
Experimental: as §3

[12] = test system: Staphylococcus epidermidis (MTCC 435); test: Kirby-Bauer disk diffusion susceptibility test; format: cell-based; conditions: 10 μg lipopeptide per 6 mm disc, Mueller-Hinton agar, 24-48 h; duplicates, repeated thrice
Experimental: as §3

fungi = test: Kirby-Bauer disk diffusion susceptibility test; format: cell-based; conditions: 10 μg per disc
Experimental: as §3

[13] = test system: Mycobacterium smegmatis (MTCC 6); test: Kirby-Bauer disk diffusion susceptibility test; format: cell-based; conditions: 10 μg lipopeptide per 6 mm disc, Mueller-Hinton agar, 24-48 h; duplicates, repeated thrice
Experimental: as §3

[14] = Effect of pH on lipopeptide activity; format: physicochemical; conditions: for Residual activity (%): residual antimicrobial activity
Description: as §4

proteinase K = biological target: T2, proteinase K (Parengyodontium album, UniProt P06873); test: Sensitivity to enzymes; format: in vitro ADME; conditions: lipopeptide 1.0 mg/ml + proteinase K (~30 U/mg) 1.0 mg/ml in 50 mM phosphate buffer pH 7.0, equal volumes (20 μl each), 37°C, 12 h; residual activity by disc diffusion
T2 construct: purchased Sigma Aldrich
Description: as §4

[15] = Qualitative drop-collapse test; format: physicochemical; conditions: 2 μl mineral oil, 5 μl lipopeptide (10 μg, dissolved in water), drop shape after 1 min
Experimental: as §2

trypsin [16] = biological target: T1, trypsin; set-up: purchased Sigma Aldrich; conditions: ref Guo et al. 2012; cited from earlier work
Description: (§6) Antimicrobial lipopeptides have been purified from many bacterial genera including several Streptomyces spp. such as S. violaceus var. aspartocinius (aspartocin), S. griseoflavus (tsushimycin), S. viridochromogens (laspartomycin), S. coelicolor (calcium-dependent antibiotic), S. roseosporus (daptomycin), S. fradiae (A54145), S. parvulus var. parvuli (parvuline) and S. canus (amphomycin) (Schneider et al. [2009]). The present study reports the production of another novel lipopeptide from a Streptomyces sp. The primary structure of lipopeptide was determined using a combination of chemical rea ...

lipase [17] = conditions: ref Guo et al. 2012; cited from earlier work
Description: as §6

T2 sequence (P06873 106-384): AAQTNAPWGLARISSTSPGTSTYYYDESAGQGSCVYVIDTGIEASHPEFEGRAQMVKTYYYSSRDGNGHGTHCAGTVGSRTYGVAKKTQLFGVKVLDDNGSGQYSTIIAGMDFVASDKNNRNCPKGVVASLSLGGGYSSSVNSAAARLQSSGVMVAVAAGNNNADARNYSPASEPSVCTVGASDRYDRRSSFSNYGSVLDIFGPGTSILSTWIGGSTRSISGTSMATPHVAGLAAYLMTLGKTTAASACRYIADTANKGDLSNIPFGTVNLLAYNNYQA

Work on `CC[C@@]1(O)C(=O)OCc2c1cc1n(c2=O)Cc2cc3ccccc3nc2-1` [camptothecin, Camptothecin, reference compound] yielded an IC50 ([1]; Cricetulus griseus, CHO cells, SRB assay) of 0.959 µg/mL (≈ 2.75 µM).

With `Nc1ccc([N+](=O)[O-])cc1N` [positive mutagen, 4-Nitro-o-phenylenediamine, reference compound] the “number of revertant colonies” value ([2]; positive control, 20 μg plate^-1, compared with negative control) was “considerably higher”.

With “ATGSHQ [lipopeptide, novel antimicrobial lipopeptide from Streptomyces amritsarensis; Ala-Thr-Gly-Ser-His-Gln, C-terminal amino acid linked to aliphatic chain -(CH2)7-CH2-(CH3)2-]” the stability to trypsin (trypsin [3]) was “resistant”, the stability to lipase (lipase [4]) was “resistant” and the “surface tension of water” value [5] was 37 mN m^−1. For the same compound, the inhibition zone (MRSA) was 13 mm, the “Residual activity (%)” value (Heat stability assay; 50°C, 1 h) was 100% and the “Residual activity (%)” value (Heat stability assay; 60°C, 1 h) was 100%. The heat stability (Heat stability assay; 70°C for 1 h) was “completely stable”, the “Residual activity (%)” value (Heat stability assay; 70°C, 1 h) was 100% and the “Residual activity (%)” value (Heat stability assay; 80°C, 1 h) was 84.2%. For the same compound, the “Residual activity (%)” value (Heat stability assay; 90°C, 15 min) was 95.0%, the “Residual activity (%)” value (Heat stability assay; 100°C, 15 min) was 86.3% and the loss of activity (Heat stability assay; 100°C, 15 minutes incubation) was 13.7%. For the same compound, the “Residual activity (%)” value (Heat stability assay; 121°C, 15 min (304 KPa), autoclaving) was 81.8%, the “reduction of antimicrobial activity” value (Heat stability assay; after autoclaving (121°C for 15 min)) was 18.2% and the MIC [6] was 10 µg/mL. For the same compound, the MIC [7] was 45 µg/mL, the MIC [8] was 15 µg/mL and the MIC [9] was 25 µg/mL. The mutagenicity ([2]; 50 and 100 μg/0.1 ml per plate, 48 hours at 37°C) was “non-mutagenic”, the antimicrobial activity [10] was “did not show activity” and the inhibition zone [11] was 21 mm. For the same compound, the inhibition zone [12] was 17 mm, the antimicrobial activity (fungi) was “did not show activity” and the inhibition zone [13] was 15 mm. The “change in activity profile” value ([14]; between pH 5.0–9.0) was “did not show any change”, the “Residual activity (%)” value ([14]; pH 2, 1 h/4°C) was 0% and the “Residual activity (%)” value ([14]; pH 3, 1 h/4°C) was 72.7%. The “Residual activity (%)” value ([14]; pH 4, 1 h/4°C) was 84.6%, the “Residual activity (%)” value ([14]; pH 5, 1 h/4°C) was 100% and the “Residual activity (%)” value ([14]; pH 6, 1 h/4°C) was 100%. The “Residual activity (%)” value ([14]; pH 7, 1 h/4°C) was 100%, the “Residual activity (%)” value ([14]; pH 8, 1 h/4°C) was 100% and the “Residual activity (%)” value ([14]; pH 9, 1 h/4°C) was 100%. For the same compound, the “Residual activity (%)” value ([14]; pH 10, 1 h/4°C) was 86.3%, the “Residual activity (%)” value ([14]; pH 11, 1 h/4°C) was 68.1% and the “Residual activity (%)” value ([14]; pH 12, 1 h/4°C) was 0%. The “stability to proteinase K” value (proteinase K) was “negligible loss in activity”, the growth inhibition ([1]; 2.5 μg/ml) was 2.9% and the growth inhibition ([1]; 6.25 μg/ml) was 16.8%. The growth inhibition ([1]; 12.5 μg/ml) was 19.25%, the growth inhibition ([1]; 18.75 μg/ml) was 23.28% and the growth inhibition ([1]; 25 μg/ml) was 28.9%. For the same compound, the drop-collapse test [15] was “collapsed the oil drop”.

For paenibacterin, the resistance to trypsin (trypsin [16]) is given as “resistant” and the resistance to lipase (lipase [17]) is given as “resistant”.
